Measurements taken from US20250326725A1, “PI4-Kinase Inhibitors and Methods of Using the Same” (The Board of Trustees of the Leland Stanford Junior …, priority 2019, published 2025).
Several values for one entry are separate records, joined by “and”; a condition that tells them apart may be missing. Equal entries are not always repeated.

Assays:
PI4KIIIalpha = target: T1, PI4KIIIalpha (Homo sapiens, UniProt P42356); test: PI-kinase assay, PI4KIIIalpha (Table 4); format: biochemical
T1 construct: made in house; host or cells: COS-7 cells, transient transfection, anti-HA immunoprecipitate on protein G Sepharose beads
T1 sequence (P42356 whole entry): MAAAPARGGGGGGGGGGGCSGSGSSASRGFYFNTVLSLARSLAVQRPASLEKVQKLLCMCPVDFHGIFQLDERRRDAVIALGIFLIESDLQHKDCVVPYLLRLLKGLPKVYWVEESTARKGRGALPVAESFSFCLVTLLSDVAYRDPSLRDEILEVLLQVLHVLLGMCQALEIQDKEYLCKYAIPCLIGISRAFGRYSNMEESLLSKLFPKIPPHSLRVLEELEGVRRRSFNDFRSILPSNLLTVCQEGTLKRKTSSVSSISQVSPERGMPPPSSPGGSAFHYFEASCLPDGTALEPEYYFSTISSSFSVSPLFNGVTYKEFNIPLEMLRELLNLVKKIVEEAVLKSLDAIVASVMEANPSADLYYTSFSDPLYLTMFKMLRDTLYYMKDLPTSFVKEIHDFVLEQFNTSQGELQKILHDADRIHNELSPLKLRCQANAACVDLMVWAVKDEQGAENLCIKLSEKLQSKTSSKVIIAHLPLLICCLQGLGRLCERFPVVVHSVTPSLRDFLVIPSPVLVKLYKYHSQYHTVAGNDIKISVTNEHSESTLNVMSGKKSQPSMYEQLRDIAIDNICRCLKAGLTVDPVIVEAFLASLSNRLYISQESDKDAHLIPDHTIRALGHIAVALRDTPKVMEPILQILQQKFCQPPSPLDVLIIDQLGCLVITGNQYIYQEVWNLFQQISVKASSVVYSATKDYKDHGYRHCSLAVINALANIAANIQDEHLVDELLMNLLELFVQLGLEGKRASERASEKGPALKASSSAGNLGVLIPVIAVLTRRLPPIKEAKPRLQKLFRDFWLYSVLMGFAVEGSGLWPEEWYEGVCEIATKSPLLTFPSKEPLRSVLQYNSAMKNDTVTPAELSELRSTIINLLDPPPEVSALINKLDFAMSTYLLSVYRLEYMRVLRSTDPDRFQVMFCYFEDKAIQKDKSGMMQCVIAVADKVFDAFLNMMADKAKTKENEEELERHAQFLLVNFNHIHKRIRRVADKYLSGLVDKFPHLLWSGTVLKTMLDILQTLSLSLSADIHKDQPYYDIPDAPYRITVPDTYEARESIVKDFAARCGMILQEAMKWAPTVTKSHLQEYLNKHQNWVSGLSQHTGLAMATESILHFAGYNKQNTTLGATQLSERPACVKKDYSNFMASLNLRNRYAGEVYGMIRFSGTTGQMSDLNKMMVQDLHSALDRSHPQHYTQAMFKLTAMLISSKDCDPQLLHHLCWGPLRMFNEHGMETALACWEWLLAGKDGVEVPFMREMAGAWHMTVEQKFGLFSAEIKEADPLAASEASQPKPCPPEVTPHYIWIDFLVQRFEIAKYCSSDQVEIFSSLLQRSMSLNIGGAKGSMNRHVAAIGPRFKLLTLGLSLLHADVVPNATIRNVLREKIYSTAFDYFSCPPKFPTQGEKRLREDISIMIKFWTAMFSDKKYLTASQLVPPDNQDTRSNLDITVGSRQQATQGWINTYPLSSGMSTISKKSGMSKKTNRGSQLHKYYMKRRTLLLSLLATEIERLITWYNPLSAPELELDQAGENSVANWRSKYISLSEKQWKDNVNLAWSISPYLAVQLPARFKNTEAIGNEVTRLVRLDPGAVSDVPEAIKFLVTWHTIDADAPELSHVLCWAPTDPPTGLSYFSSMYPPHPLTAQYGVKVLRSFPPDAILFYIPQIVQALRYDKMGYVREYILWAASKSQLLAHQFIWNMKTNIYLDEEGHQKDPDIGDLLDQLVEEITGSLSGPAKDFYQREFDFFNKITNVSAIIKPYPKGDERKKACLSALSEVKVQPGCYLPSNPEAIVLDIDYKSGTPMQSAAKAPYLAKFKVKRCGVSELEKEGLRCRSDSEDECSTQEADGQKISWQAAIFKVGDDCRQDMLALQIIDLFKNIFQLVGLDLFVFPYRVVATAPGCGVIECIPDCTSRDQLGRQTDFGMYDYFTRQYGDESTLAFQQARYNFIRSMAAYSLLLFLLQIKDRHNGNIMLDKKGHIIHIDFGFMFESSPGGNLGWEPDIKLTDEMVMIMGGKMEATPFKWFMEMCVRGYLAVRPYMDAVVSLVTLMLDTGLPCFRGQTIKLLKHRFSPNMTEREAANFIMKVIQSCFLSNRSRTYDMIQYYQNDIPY
Method: (§1) PI-kinase assay: Compounds are tested in C.1.1. PT kinase assays as described by Shokat et al., “A membrane capture assay for lipid kinase activity.” Nat. Protoc. 2007; 2(10):2459-66.
(§2) General methods of materials: In the assays described here, p110α-p85 complex and p110γ were acquired from Millipore. Assays were performed with La-phosphatidylinositol (Avanti) as described in Knight et al. Nat Protoc. 2007; 2 (10):2459-66. Inhibitor series were prepared 10% DMSO as 5× stocks for the assay. Assays of HsVps34 were performed as described in Knight et al, except that the final assay buffer composition used was changed to 20 mM HEPES 7.5, 100 mM NaCl, 3 mM MgCl, 1 mg/mL PI and 44 nM hvps34 was used in the assay. […] COS-7 cells were cultured in 10 cm dishes and transfected at 70% confluence with 10 μg of plasmid DNA (HA-tagged bovine PI4KIIIβ. HA-tagged human PI4KIIIα) using Lipofectamine 2000 and 5 ml Opti-MEM following the manufacturer's instructions. After 5 hours the transfection medium was replaced with 10 ml complete DMEM. 36 hrs post transfection, cells were washed once with 5 ml PBS (pH 7.4) and lysed in 1 ml of lysis buffer (1) on ice. Lysates were collected by scraping and after 15 min they were centrifuged at 13.000 rpm for 10 min. To the lysates was added 200 gi of protein G Sepharose 4 fast flow beads that were prewashed with PBS and lysis buffer and 2 sg of anti-HA antibody. The tubes were then incubated overnight at 4 degrees C. in a tube rotator. The Sepharose beads in the lysate were washed twice with 150 mM NaCl in RIPA buffer, twice with RIPA buffer and once with kinase buffer (50 mM Tris/HCl, pH 7.5, 20 mM MgCl2, 1 mM EFTA, 1 mM PtdIns, 0.4% Triton X-100, 0.5 mg/mL BSA) and finally the beads were resuspended in 200 μL kinase buffer. Kinase reactions were run in a mixture of 45 μL of PI buffer (1 mM P1 in kinase buffer), 10 μL of immunoprecipitated beads, 2 µL of inhibitors (dissolved and diluted in DMSO) or DMSO and 5 μL of [γ-^32P]-ATP (1 mM and 2 μCi/tube). The immunoprecipitates in PI buffer were pre-incubated with the drugs for 20 min prior the initiation of kinase reaction by adding ATP and the reactions were carried out for 30 min in 15 ml polyproplyene tubes. Reactions were terminated by addition of 3 ml of CHCl3:CH3OH:HCl (200:100:0.75) followed by 0.6 ml of 0.61N HCl to induce phase separation. The mixtures were vortexed, centrifuged at 2000 rpm for 2 min and the upper phase was discarded. To the lower phase was added 1.5 ml of CHCl3:CH3OH:0.6N HCl (3:48:47) and the mixture vortexed and centrifuged at 2000 rpm for 2 ruin. The lower phase was then transferred to counting vials and evaporated. Samples were counted in a scintillation beta counter after adding 5 ml of Instafluor (Perkin-Elmer).
(§3) Selected compounds of Tables 1-3 were prepared and tested for inhibition activity in a variety of kinase assays.

PI4KIIIbeta = target: T2, PI4KIIIbeta (Bos taurus, UniProt O02810); test: PI-kinase assay, PI4KIIIbeta (Table 4); format: biochemical, bovine
T2 construct: made in house; host or cells: COS-7 cells, transient transfection, anti-HA immunoprecipitate on protein G Sepharose beads
T2 sequence (O02810 whole entry): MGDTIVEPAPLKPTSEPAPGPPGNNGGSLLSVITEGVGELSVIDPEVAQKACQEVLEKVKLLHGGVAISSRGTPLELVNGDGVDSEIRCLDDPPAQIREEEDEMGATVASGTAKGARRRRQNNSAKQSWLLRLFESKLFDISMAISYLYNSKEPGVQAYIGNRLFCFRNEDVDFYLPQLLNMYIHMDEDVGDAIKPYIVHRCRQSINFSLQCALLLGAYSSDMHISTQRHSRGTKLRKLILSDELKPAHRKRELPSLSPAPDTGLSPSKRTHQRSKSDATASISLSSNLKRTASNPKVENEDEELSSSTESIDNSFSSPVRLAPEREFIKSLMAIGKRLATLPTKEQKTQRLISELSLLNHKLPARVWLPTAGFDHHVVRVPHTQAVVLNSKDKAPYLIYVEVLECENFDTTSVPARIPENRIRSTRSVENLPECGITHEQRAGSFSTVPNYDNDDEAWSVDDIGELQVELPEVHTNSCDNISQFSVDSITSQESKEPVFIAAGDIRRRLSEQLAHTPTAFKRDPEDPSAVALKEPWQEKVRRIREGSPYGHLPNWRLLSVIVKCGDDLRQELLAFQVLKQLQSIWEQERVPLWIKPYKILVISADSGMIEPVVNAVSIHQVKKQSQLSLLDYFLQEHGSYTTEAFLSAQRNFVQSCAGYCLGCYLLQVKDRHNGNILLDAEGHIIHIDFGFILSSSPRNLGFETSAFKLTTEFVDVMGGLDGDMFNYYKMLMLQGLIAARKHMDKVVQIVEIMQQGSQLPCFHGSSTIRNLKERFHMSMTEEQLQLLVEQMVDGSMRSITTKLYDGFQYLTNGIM
Method: as §1, §2, §3

[1] = test system: BK virus (Polyomaviridae); test: BK virus antiviral assay (EC50); format: cell-based; conditions: Betapolyomavirus hominis
[2] = Cell toxicity (CC50) in BK virus assay
HCV = test: Anti-HCV assay (EC50); format: cell-based; conditions: Hepatitis C virus, read-out: HCV EC50
Method: Anti-HCV assay: Anti-HCV assays are performed as described by Cho et al. “Identification of a class of HCV inhibitors directed against the nonstructural protein NS4B.” Sci. Transl. Med. 2011; 2(15):15ra6.

HRV = test: Rhinovirus antiviral assay (EC50); format: cell-based; conditions: Human rhinovirus sp.
EV71 = EV71 antiviral assay (EC50); format: cell-based, Enterovirus 71; conditions: Enterovirus A, EV71
EV68 = EV68 antiviral assay (EC50); format: cell-based
[3] = Microsomal stability, human liver microsomes; format: in vitro ADME; conditions: for half-life: read-out: HLM/MLM (t ½ min): HLM
[4] = Microsomal stability, mouse liver microsomes; format: in vitro ADME
[5] = Caco-2 permeability assay; format: in vitro ADME; conditions: human, read-out: Caco2 Papp × 1e−6 cm/s
Method: Compounds of interest were tested in a variety of cell-based assays for antiviral activity.

[6] = test system: JC virus (Polyomaviridae); test: JC virus antiviral assay (EC50); format: cell-based; conditions: JC polyomavirus
[7] = Cell toxicity (CC50) in HRV assay; conditions: human, HRV CC50
[8] = Cell toxicity (CC50) in EV71 assay; conditions: EV71 CC50
cells (EV71 assay) = test: Cell toxicity (CC50) in EV71 assay
[9] = Cell toxicity (CC50) in EV68 assay; conditions: EV68 CC50
[10] = Cell toxicity (CC50) in JC virus assay
[11] = test system: Human HPV (Papillomaviridae); test: Human HPV antiviral assay (EC50); format: cell-based, human papilloma virus; conditions: Human papillomavirus, read-out: Human HPV (Papillomaviridae) EC50
HeLa S3 cells = test: Cell toxicity (CC50) in HRV assay; conditions: human
[12] = Cell toxicity (CC50) in HPV assay
cells (EV68 assay) = test: Cell toxicity (CC50) in EV68 assay
lung cancer cell lines [13] = test: PI4P levels in lung cancer cell lines; format: cell-based, human; conditions: panel of lung cancer cell lines
Method: (§4) Human lung cancer cells (A549, H1299, H460, H23, H2122, and H3122) were cultured in RPMI 1640 containing 10% FBS. Cells were maintained at 37° C. in an incubator with a humidified atmosphere containing 5% CO2.
(§5) To assess the anti-cancer activity of exemplary PI4K antagonists, a panel of lung cancer cell lines annotated for the presence or absence of PI4K amplifications were treated with PI4K inhibitors (IN-9, TN-10, or compound B) that have greater than 1000-fold selectivity […] PI4KIIIβ over class I and class III PI3K family members. […] IC50 values were even lower with the presence of PI4K amplifications.
(§6) PI4KIIIβ is a target in human cancers, including lung adenocarcinoma. (FIG. 1A). PI4P concentrations in H2122 cells (dots) treated in triplicate (dots) with Compound B or vehicle dimethyl sulfoxide (DMS). (FIG. 1B) Relative densities of PI4-kinase-amplified (red) and -diploid (black) human lung adenocarcinoma cell lines determined by WST-1 assays after 5 days of Compound B treatment. Results expressed relative to the lowest dose, which was set at 100%. (FIG. 1B, right panel) Half maximal inhibitory (IC50) concentrations of compound B determined from FIG. 1B, left panel. (FIG. 1C) Migrated and invaded 1-23 human lung adenocarcinoma cells in Transwell chambers were photographed (images) and counted (bar graphs) after treatment with compound B. Results expressed relative to DMSO-treated cells, which were set at 1.0. (FIG. 1C, right panel). Colonies formed by H2122 human lung cancer cells in soft agarose (FIG. 1D) and on plastic (FIG. 1E) were photographed (images) and counted (bar graphs) after 7 days of treatment with the indicated doses of compound B or vehicle DMSO (0 M). Results expressed relative to DMSO control, which were set at 1.0. PI4-kinase inhibition leads to selective cytotoxicity for cancer cells (FIG. 1F).

lung cancer cell lines [14] = test: Cell proliferation in monolayer culture (WST-1); format: cell-based, human; conditions: panel of lung cancer cell lines
Method: as §4, §5, §6

lung cancer cell lines [15] = test: Migration and invasion in Boyden chambers; format: cell-based, human; conditions: panel of lung cancer cell lines
Method: as §4, §5, §6

lung cancer cell lines [16] = test: Colony formation in soft agar and on plastic; format: cell-based, human; conditions: panel of lung cancer cell lines
Method: as §4, §5, §6

[17] = read-out: HLM/MLM (t ½ min): MLM
[18] = with ritonavir (concentration not stated), + Ritonavir, read-out: HLM/MLM (t ½ min) + Ritonavir: MLM

| SMILES | IC50 (PI4KIIIalpha) | IC50 (PI4KIIIbeta) | EC50 [1] | CC50 [2] | EC50 (HRV) | EC50 (EV71) | EC50 (EV68) | EC50 [6] | CC50 [7] | CC50 [8] | CC50 [9] | CC50 [10] | other results |
| --- | --- | --- | --- | --- | --- | --- | --- | --- | --- | --- | --- | --- | --- |
| COc1ccc(-c2sc(NC(C)(C)C3CCOCC3)nc2C)cc1S(=O)(=O)Nc1c(C)cccc1F [Compound C] | > 10 µM | < 0.1 µM | 0.07 µM | > 100 µM |  |  |  |  |  |  |  |  |  |
| COc1ccc(-c2sc(NC(C)(C)c3ccccc3)nc2C)cc1S(=O)(=O)NC1CCN(C(C)=O)CC1 [Compound S-42] | > 10 µM | < 0.1 µM |  |  | 0.0009 µM | 0.0003 µM | 0.0019 µM and 0.0016 µM | 8.1 µM | 100 µM | 103 µM | 100 µM | > 150 µM | EC50 (HCV): 0.0007 µM; HLM/MLM (t ½ min) + Ritonavir: HLM [3]: 159 min; half-life [3]: 10 min; half-life [4, 17]: 14 min; half-life [4, 18]: 82 min; Papp [5]: 14 ×10⁻⁶ cm/s; CC50 (cells (EV71 assay)): 100 µM |
| COc1ccc(-c2sc(NC(C)(C)c3ccccn3)nc2C)cc1S(=O)(=O)Nc1c(C)cccc1F [Compound S-45] | > 10 µM | < 0.1 µM |  |  | 0.0005 µM | 0.0003 µM | 0.002 µM and 0.0029 µM | 4.7 µM | 66.2 µM | 87.3 µM | 73.2 µM | > 150 µM | EC50 (HCV): 0.0004 µM; HLM/MLM (t ½ min) + Ritonavir: HLM [3]: 159 min; half-life [3]: 14 min; half-life [4, 17]: 10 min; half-life [4, 18]: 67 min; EC50 [11]: 5.3 µM; CC50 (HeLa S3 cells): 52 µM; CC50 [12]: 77 µM; CC50 (cells (EV71 assay)): 77 µM; CC50 (cells (EV68 assay)): 38 µM |
| COc1ccc(-c2sc(NC(C)C3CCOCC3)nc2C)cc1S(=O)(=O)Nc1c(C)cccc1F (centres unmarked) [Compound S-76] |  |  | < 0.0006 µM | 27 µM | 0.0019 µM | 0.0018 µM | 0.005 µM |  | 9.3 µM | 36 µM | 9.4 µM |  |  |
| Nc1ccn(C[C@@H](CO)OCP(=O)(O)O)c(=O)n1 [PC1, cidofovir, reference compound] |  |  | 0.31 µM | > 100 µM |  |  |  | 29.5 µM |  |  |  | > 150 µM |  |
| Nc1nc2c(ncn2CCOCP(=O)(O)O)c(=O)[nH]1 [PC2, 9-[2-(phosphono-methoxy)ethyl]guanine, reference compound] |  |  |  |  |  |  |  |  |  |  |  |  | EC50 [11]: 2.8 µM; CC50 [12]: > 150 µM |
| COc1ccc(-c2sc(NC(=O)C3CCCC3)nc2C)cc1S(=O)(=O)Nc1ccc(O)cc1 [PI4KIIIbeta-IN-9] |  |  |  |  |  |  |  |  |  |  |  |  | PI4P levels (lung cancer cell lines [13]): decreased PI4P levels in a dose-dependent fashion; cell proliferation in monolayer culture (lung cancer cell lines [14]): reduced cell proliferation in monolayer culture; migration and invasion in Boyden chambers (lung cancer cell lines [15]): reduced; colony formation in soft agar and on plastic (lung cancer cell lines [16]): reduced |
